Source: patent USRE36832E, “N-heteroaryl-N'-phenylurea derivatives, their production and use” (Nihon Nohyaku Co., LTD, priority 1993, dated 2000)

Legend:
[1] = tested on: serum cholesterol; test: Serum cholesterol lowering activity in hamsters fed on a high-cholesterol diet; format: in vivo, Male Syrian hamsters; conditions: 30 mg per kg of body weight per day for 4 days, 24 hours after the last administration
Description: Serum cholesterol lowering activity in hamsters fed on a high-cholesterol diet
Male Syrian hamsters of 10-week-old were divided into three groups. The first group (normal group) was fed an ordinary diet for 4 days. The second group (control group) was fed a high cholesterol diet (containing 0.5% cholesterol and 8.0% coconut oil for 4 days. The third group (treated group) was fed a high cholesterol diet and was treated with a compound for 4 days. Simultaneously with the beginning of the above feeding, the compound suspended in a 0.5% carboxymethyl cellulose solution was administered to the treated group, in a dose of 30 mg (in terms of the compound) per kg of body weight per day for 4 days. A 0.5% carboxymethyl cellulose solution was also administered to the normal group and the control group in the same manner as above. After 24 hours of the last administration, blood was collected and the cholesterol concentration in serum was measured by an enzymatic method. The reduction rate of the total serum cholesterol concentration was calculated from values obtained for the three groups by the following equation. [formula] wherein A: the serum cholesterol concentration of the control group.
B: the serum cholesterol concentration of the compound treated group.
C: the serum cholesterol concentration of the normal group.

[2] = target: T1, acyl-CoA:cholesterol O-acyltransferase (ACAT) (Oryctolagus cuniculus, UniProt G1SFD9); test: Inhibitory activity on acyl-CoA:cholesterol O-acyltransferase (ACAT), intestinal mucosa microsomal fraction, [1-14C]oleyl-CoA incorporation into cholesterol esters; format: biochemical, white rabbit; conditions: read-out: Inhibition rate %
T1 construct: The intestinal mucosa of a white rabbit was homogenized and microsomal fraction was obtained by stepwise centrifugation; from tissue; host or cells: intestinal mucosa of white rabbit, microsomal fraction
T1 sequence (G1SFD9 1-524): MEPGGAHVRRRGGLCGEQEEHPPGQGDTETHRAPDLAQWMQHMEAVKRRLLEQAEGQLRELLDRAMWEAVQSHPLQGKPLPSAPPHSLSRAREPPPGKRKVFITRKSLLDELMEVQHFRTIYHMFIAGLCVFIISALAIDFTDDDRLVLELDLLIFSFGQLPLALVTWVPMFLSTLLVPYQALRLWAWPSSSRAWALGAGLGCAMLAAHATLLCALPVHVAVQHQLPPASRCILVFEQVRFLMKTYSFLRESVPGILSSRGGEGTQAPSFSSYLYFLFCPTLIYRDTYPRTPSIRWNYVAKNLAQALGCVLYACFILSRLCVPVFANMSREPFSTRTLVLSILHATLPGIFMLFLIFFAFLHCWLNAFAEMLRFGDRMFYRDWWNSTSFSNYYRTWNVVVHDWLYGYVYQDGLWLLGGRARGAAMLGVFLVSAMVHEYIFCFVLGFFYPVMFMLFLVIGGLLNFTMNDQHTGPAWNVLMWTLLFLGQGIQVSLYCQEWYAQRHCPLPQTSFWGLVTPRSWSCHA
Description: Inhibitory activity on acyl-CoA:cholesterol Oacyltransferase (ACAT)
The enzyme used in the test was prepared according to the method of Heider et al. [J. Lipid, Res. 24, 1127 (1983)]. The intestinal mucosa of a white rabbit was homogenized and microsomal fraction was obtained by stepwise centrifugation. The microsomal fraction was suspended in 0,154M phosphate buffer (pH 0 7.4) and stored at -80° C. until use.
ACAT activity was determined by a modification of the method of Helgerud et al. [J. Lipid Res. 22, 271 (1981)] by measuring radioactivity incorporated into cholesterol esters from [1-14C]oleyl-CoA, as an indication. As to the ACAT-inhibiting activity of each compound to be tested, the inhibition rate was calculated by the following equation.

`CCc1cccc(CC)c1NC(=O)Nc1sc2cc3c(cc2c1-c1ccccc1C)CCC3` [Compound 109, N-(2,6-Diethylphenyl)-N'-[3-(2-methylphenyl)-6,7-dihydro-5H-cyclopenta[f][1]benzothiophen-2-yl]urea] was tested. Which “Reduction rate (%) of the total serum cholesterol concentration” value [1] did it give?
Its value is 71.5%.

What about the inhibition at 0.01 µM [2] of the same molecule?
Its inhibition at 0.01 µM is 80.1%.

Which inhibition at 1 µM [2] does the source give for `Cc1ccc(S(=O)(=O)n2c(NC(=O)Nc3ccc(F)cc3F)c(-c3ccccc3)c3ccccc32)cc1` [Compound 120, N-(2,4-Difluorophenyl)-N'-[3-phenyl-1-(p-toluenesulfonyl)-3-phenylindole-2-yl]urea] here?
The inhibition at 1 µM was 60.4%.

With `CCc1ccc2oc(NC(=O)Nc3ccc(F)cc3F)c(-c3ccccc3Cl)c2c1` [Compound 26, N-[-3-(2-Chlorophenyl)-5-ethylbenzofuran-2-yl]-N'-(2,4-difluorophenyl)urea] as the molecule, how does the inhibition at 0.01 µM [2] read?
Its inhibition at 0.01 µM is 41.2%.

`CCc1cccc(CC)c1NC(=O)Nc1oc2ccc(Cl)cc2c1-c1ccccc1SC` [Compound 62, N-[5-Chloro-3-(2-methylthiophenyl)benzofuran-2-yl]-N'-(2,6-diethylphenyl)urea] was tested. Which inhibition at 0.01 µM [2] did it give?
The inhibition at 0.01 µM was 91.6%.

`O=C(Nc1sc2cc3c(cc2c1-c1ccccc1Cl)CCC3)Nc1c(Cl)cccc1Cl` [Compound 95, N-[3-(2-Chlorophenyl)-6,7-dihydro-5H-cyclopenta[f][1]benzothiophen-2-yl]-N'-(2,6-dichlorophenyl)urea] was tested. Which inhibition at 0.01 µM [2] did it give?
The inhibition at 0.01 µM was 66.4%.

For `CCc1cccc(CC)c1NC(=O)Nc1sc2cc3c(cc2c1-c1ccccc1Cl)CCCC3` [Compound 96, N-[3-(2-Chlorophenyl)-5,6,7,8-tetrahydronaphthono[2,3-b]thiophen-2-yl]-N'-(2,6-diethylphenyl)urea], which inhibition at 0.01 µM [2] is on record?
The inhibition at 0.01 µM was 80.7%.

Which inhibition at 0.01 µM [2] does the source give for `CC(C)c1cccc(C(C)C)c1NC(=O)Nc1sc2cc3c(cc2c1-c1ccccc1Cl)CCC3` [Compound 89, N-[3-(2-Chlorophenyl)-6,7-dihydro-5H-cyclopenta[f][1]benzothiophen-2-yl]-N'-(2,6-diisopropylphenyl)urea] here?
Its inhibition at 0.01 µM is 44.4%.

For `CCc1cccc(CC)c1NC(=O)Nc1sc2cc3c(cc2c1-c1ccccc1C(F)(F)F)CCC3` [Compound 113, N-(2,6-Diethylphenyl)-N'-[3-(2-trifluoromethylphenyl)-6,7-dihydro-5H-cyclopenta[f][1]-benzothiophen-2-yl]urea], which inhibition at 0.01 µM [2] is on record?
Its inhibition at 0.01 µM is 43.5%.

Which inhibition at 0.01 µM [2] does the source give for `Cc1cc2sc(NC(=O)Nc3c(C)cccc3N(C)C)c(-c3ccccc3Cl)c2cc1C` [Compound 83, N-[3-(2-Chlorophenyl)-5,6-dimethyl-1-benzothiophen-2-yl]-N'-(2-dimethylamino-6-methylphenyl)urea] here?
Its inhibition at 0.01 µM is 81.3%.

Which results are given for `Cc1ccccc1NC(=O)Nc1oc2ccc(Cl)cc2c1-c1ccccc1Cl` [Compound 5, N-[5-Chloro-3-(2-chlorophenyl)benzofuran-2-yl]-N'-(2-methylphenyl)urea]?
inhibition at 0.01 µM [2]: 15.4%; inhibition at 1 µM [2]: 98.5%

`CCc1cccc(CC)c1NC(=O)Nc1oc2ccc(Cl)cc2c1-c1ccccc1C` [Compound 60, N-[5-Chloro-3-(2-methylphenyl)benzofuran-2-yl]-N'-(2,6-diethylphenyl)urea] was tested. Which inhibition at 0.01 µM [2] did it give?
Its inhibition at 0.01 µM is 82.6%.

For `O=C(Nc1ccccc1)Nc1oc2ccc(Cl)cc2c1-c1ccccc1Cl` [Compound 4, N-[5-Chloro-3-(2-chlorophenyl)benzofuran-2-yl]-N'-phenylurea], which inhibition at 1 µM [2] is on record?
Its inhibition at 1 µM is 77.9%.

Which inhibition at 1 µM [2] does the source give for `Cc1cc(C)c(NC(=O)Nc2oc3c(C)cc(C)cc3c2-c2ccccc2Cl)c(C)c1` [Compound 45, N-[3-(2-Chlorophenyl)-5,7-dimethylbenzofuran-2-yl]-N'-(2,4,6-trimethylphenyl)urea] here?
Its inhibition at 1 µM is 94%.

With `CCc1cccc(CC)c1NC(=O)Nc1sc2cc(OC)c(OC)cc2c1-c1ccccc1Cl` [Compound 102, N-[3-(2-Chlorophenyl)-5,6-dimethoxy-1-benzothiophen-2-yl]-N'-(2,6-diethylphenyl)urea] as the molecule, how does the inhibition at 0.01 µM [2] read?
Its inhibition at 0.01 µM is 43.3%.

For `O=C(Nc1ccc(F)cc1F)Nc1oc2cc3c(cc2c1-c1ccccc1Cl)CCC3` [Compound 55, N-[3-(2-Chlorophenyl)-6,7-dihydro-5H-cyclopenta[f]benzofuran-2-yl]-N'-(2,4-difluorophenyl)urea], which inhibition at 0.01 µM [2] is on record?
Its inhibition at 0.01 µM is 32.1%.

With `Cc1cccc(C(C)C)c1NC(=O)Nc1oc2ccc(Cl)cc2c1-c1ccccc1Cl` [Compound 15, N-[5-Chloro-3-(2-chlorophenyl)benzofuran-2-yl]-N'-(2-isopropyl-6-methylphenyl)urea] as the molecule, how does the inhibition at 0.01 µM [2] read?
The inhibition at 0.01 µM was 76.8%.

What about the inhibition at 1 µM [2] of the same molecule?
The inhibition at 1 µM was 99.4%.

Which inhibition at 0.01 µM [2] does the source give for `Cc1cc2oc(NC(=O)Nc3c(C)cccc3C(C)C)c(-c3ccccc3Cl)c2cc1C` [Compound 39] here?
Its inhibition at 0.01 µM is 70.9%.

What about the inhibition at 1 µM [2] of the same molecule?
The inhibition at 1 µM was 99.4%.

`CCc1cccc(CC)c1NC(=O)Nc1oc2cc(C)c(C)cc2c1-c1ccccc1Cl` [Compound 37, N-[3-(2-Chlorophenyl)-5,6-dimethylbenzofuran-2-yl]-N'-(2,6-diethylphenyl)urea] was tested. Which “Reduction rate (%) of the total serum cholesterol concentration” value [1] did it give?
Its value is 59.3%.

And the inhibition at 0.01 µM [2]?
Its inhibition at 0.01 µM is 74.7%.

And the inhibition at 1 µM [2]?
Its inhibition at 1 µM is 99.5%.

With `Cc1cccc(C(C)C)c1NC(=O)Nc1sc2cc3c(cc2c1-c1ccccc1Cl)CCC3` [Compound 90, N-[3-(2-Chlorophenyl)-6,7-dihydro-5H-cyclopenta[f][1]benzothiophen-2-yl]-N'-(2-isopropyl-6-methylphenyl)urea] as the molecule, how does the inhibition at 0.01 µM [2] read?
The inhibition at 0.01 µM was 75.4%.

How did the inhibition at 0.01 µM [2] turn out when `Cc1ccccc1-c1c(NC(=O)Nc2ccc(F)cc2F)sc2cc3c(cc12)CCCC3` [Compound 119, N-(2,4-Difluorophenyl)-N'-[3-(2-methylphenyl)5,6,7,8-tetrahydronaphtho [2,3-b]thiophen-2-yl]urea] was run?
Its inhibition at 0.01 µM is 79.5%.

How did the inhibition at 0.01 µM [2] turn out when `Cc1cc(C)c2oc(NC(=O)Nc3c(C(C)C)cccc3C(C)C)c(-c3ccccc3Cl)c2c1` [Compound 43, N-[3-(2-Chlorophenyl)-5,7-dimethylbenzofuran-2-yl]-N'-(2,6-diisopropylphenyl)urea] was run?
Its inhibition at 0.01 µM is 52.1%.

And the inhibition at 1 µM [2]?
The inhibition at 1 µM was 99.5%.

With `Cc1ccc(S(=O)(=O)n2c(NC(=O)Nc3c(C)cccc3C(C)C)c(-c3ccccc3Cl)c3cc(C)cc(C)c32)cc1` [Compound 121, N-[3-(2-chlorophenyl)-5,7-dimethyl-1-(p-toluenesulfonyl)indole-2-yl]-N'-(2-isopropyl-6-methylphenyl)urea] as the molecule, how does the inhibition at 1 µM [2] read?
Its inhibition at 1 µM is 85.8%.

For `CC(C)c1cccc(C(C)C)c1NC(=O)Nc1sc2ccc([N+](=O)[O-])cc2c1-c1ccc(Cl)cc1Cl` [Compound 100, N-[3-(2,4-Dichlorophenyl)-5-nitro-1-benzothiophen-2-yl]-N'-(2,6-diisopropylphenyl)urea], which inhibition at 0.01 µM [2] is on record?
Its inhibition at 0.01 µM is 18.4%.

How did the inhibition at 0.01 µM [2] turn out when `CCCCCCc1ccc2oc(NC(=O)Nc3c(C(C)C)cccc3C(C)C)c(-c3ccccc3Cl)c2c1` [Compound 27, N-[3-(2-Chlorophenyl)-5-n-hexylbenzofuran-2-yl]-N'-(2,6-diisopropylphenyl)urea] was run?
Its inhibition at 0.01 µM is 63.5%.

Which inhibition at 0.01 µM [2] does the source give for `CSc1ccccc1-c1c(NC(=O)Nc2c(C(C)C)cccc2C(C)C)oc2ccc(Cl)cc12` [Compound 63, N-[5-Chloro-3-(2-methylthiophenyl)benzofuran-2-yl]-N'-(2,6-diisopropylphenyl)urea] here?
Its inhibition at 0.01 µM is 72.1%.

How did the inhibition at 0.01 µM [2] turn out when `CC(C)c1ccc2sc(NC(=O)Nc3c(C(C)C)cccc3C(C)C)c(-c3ccccc3Cl)c2c1` [Compound 77, N-[3-(2-chlorophenyl)-5-isopropyl-1-benzothiophen-2-yl]-N'-(2,6-diisopropylphenyl)urea] was run?
Its inhibition at 0.01 µM is 51.7%.

How did the inhibition at 0.01 µM [2] turn out when `O=C(Nc1ccc(F)cc1F)Nc1sc2cc3c(cc2c1-c1ccccc1Cl)CCC3` [Compound 92, N-(3-(2-Chlorophenyl)-6,7-dihydro-5H-cyclopenta[f][1]benzothiophen-2-yl]-N'-(2,4-difluorophenyl)urea] was run?
The inhibition at 0.01 µM was 81.7%.

With `Cc1cc(C)c2oc(NC(=O)Nc3c(Cl)cccc3Cl)c(-c3ccccc3Cl)c2c1` [Compound 49, N-[3-(2-Chlorophenyl)-5,7-dimethylbenzofuran-2-yl]-N'-(2,6-dichlorophenyl)urea] as the molecule, how does the inhibition at 0.01 µM [2] read?
Its inhibition at 0.01 µM is 51.9%.

What about the inhibition at 1 µM [2] of the same molecule?
Its inhibition at 1 µM is 99.1%.

`Cc1cc2sc(NC(=O)Nc3c(C(C)C)cccc3C(C)C)c(-c3ccccc3Cl)c2cc1C` [Compound 81, N-(3-(2-Chlorophenyl)-5,6-dimethyl-1-benzothiophen-2-yl]-N'-(2,6-diisopropylphenyl)urea] was tested. Which inhibition at 0.01 µM [2] did it give?
The inhibition at 0.01 µM was 41.4%.
